The numbers were not newly measured in patent US20140378500A1, “METHODS FOR PREDICTING TUMOR REPONSE TO TARGETED THERAPIES” (20/20 Gene Systems, Inc., priority 2012, published 2014), which cites them from elsewhere.

The subject of the data set is advanced renal cell carcinoma (RCC). The conditions noted are these: cited from earlier work.

Regarding `CO[C@H]1C[C@@H]2CC[C@@H](C)[C@@](O)(O2)C(=O)C(=O)N2CCCC[C@H]2C(=O)O[C@H]([C@H](C)C[C@@H]2CC[C@@H](OC(=O)C(C)(CO)CO)[C@H](OC)C2)CC(=O)[C@H](C)/C=C(\C)[C@@H](O)[C@@H](OC)C(=O)[C@H](C)C[C@H](C)/C=C/C=C/C=C/1C` [TORISEL, Temsirolimus], for the setting “kidney cancer patients, mTOR inhibitors”, the “kidney cancer patients who benefit materially” value is “less than 10%”. In addition, the response rate entry (patients diagnosed with advanced RCC) is “less than 10%”.
